Laboratory results: the kinase profiling compilation of Christmann-Franck et al. (2016)

Columns and labels:
Experiment in all cases: radiometric filter-binding kinase assay, Kinase HotSpot
Details in all cases: compound 0.5 µM; ATP 10 µM
MAP3K10 (human) = MAP3K10 (human) (UniProt Q02779)
PRKD3 (human) = PRKD3 (human) (UniProt O94806)
ACVR1B (human) = ACVR1B (human) (UniProt P36896)
MUSK (human) = MUSK (human) (UniProt O15146)
NEK9 (human) = NEK9 (human) (UniProt Q8TD19)
MARK2 (human) = MARK2 (human) (UniProt Q7KZI7)
MAP3K9 (human) = MAP3K9 (human) (UniProt P80192)
CDK2 CCNA2 (human) = CDK2 CCNA2 (human) (UniProt P24941+P20248)
MELK (human) = MELK (human) (UniProt Q14680)
CDK5 CDK5R1 p35 (human) = CDK5 CDK5R1 p35 (human) (UniProt Q00535+Q15078)
PTK2 (human) = PTK2 (human) (UniProt Q05397)
CAMKK1 (human) = CAMKK1 (human) (UniProt Q8N5S9)
PASK (human) = PASK (human) (UniProt Q96RG2)
Chain of PASK (human) (Q96RG2 whole entry, looked up): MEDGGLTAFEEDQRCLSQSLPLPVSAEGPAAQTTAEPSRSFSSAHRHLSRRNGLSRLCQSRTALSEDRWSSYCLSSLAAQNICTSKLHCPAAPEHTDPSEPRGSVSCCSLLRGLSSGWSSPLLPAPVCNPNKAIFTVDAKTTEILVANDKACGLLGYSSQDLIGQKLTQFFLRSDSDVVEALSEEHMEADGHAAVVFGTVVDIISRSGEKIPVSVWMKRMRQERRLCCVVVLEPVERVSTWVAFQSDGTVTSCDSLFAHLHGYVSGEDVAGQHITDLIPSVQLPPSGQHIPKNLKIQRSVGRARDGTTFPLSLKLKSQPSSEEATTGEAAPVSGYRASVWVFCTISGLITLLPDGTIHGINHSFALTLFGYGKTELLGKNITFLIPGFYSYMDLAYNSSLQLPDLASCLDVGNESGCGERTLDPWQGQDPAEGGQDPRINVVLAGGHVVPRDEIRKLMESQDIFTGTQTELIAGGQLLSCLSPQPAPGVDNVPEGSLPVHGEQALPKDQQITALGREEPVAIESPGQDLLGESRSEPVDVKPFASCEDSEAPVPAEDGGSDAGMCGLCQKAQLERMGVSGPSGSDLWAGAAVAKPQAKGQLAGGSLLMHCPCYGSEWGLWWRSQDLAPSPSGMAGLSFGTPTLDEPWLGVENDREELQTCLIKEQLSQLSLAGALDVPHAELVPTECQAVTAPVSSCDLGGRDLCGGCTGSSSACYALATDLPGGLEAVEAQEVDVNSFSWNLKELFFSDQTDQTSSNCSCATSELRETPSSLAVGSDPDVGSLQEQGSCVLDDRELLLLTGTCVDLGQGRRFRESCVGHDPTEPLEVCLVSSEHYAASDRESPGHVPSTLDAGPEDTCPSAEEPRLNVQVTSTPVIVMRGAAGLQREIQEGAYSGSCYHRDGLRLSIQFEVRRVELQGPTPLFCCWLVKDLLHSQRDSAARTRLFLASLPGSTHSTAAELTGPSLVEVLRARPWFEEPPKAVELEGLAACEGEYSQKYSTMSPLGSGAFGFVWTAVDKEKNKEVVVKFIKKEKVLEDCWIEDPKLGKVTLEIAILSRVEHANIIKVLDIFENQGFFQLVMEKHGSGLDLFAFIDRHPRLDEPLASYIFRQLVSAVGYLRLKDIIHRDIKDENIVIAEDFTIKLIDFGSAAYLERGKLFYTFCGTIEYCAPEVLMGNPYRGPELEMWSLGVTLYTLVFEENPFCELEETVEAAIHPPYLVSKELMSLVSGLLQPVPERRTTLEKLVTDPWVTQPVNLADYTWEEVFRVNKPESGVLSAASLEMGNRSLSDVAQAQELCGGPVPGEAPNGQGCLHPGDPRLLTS

PRKD1 (human) = PRKD1 (human) (UniProt Q15139)
INSRR (human) = INSRR (human) (UniProt P14616)
AURKA (human) = AURKA (human) (UniProt O14965)
Chain of AURKA (human) (O14965 whole entry, looked up): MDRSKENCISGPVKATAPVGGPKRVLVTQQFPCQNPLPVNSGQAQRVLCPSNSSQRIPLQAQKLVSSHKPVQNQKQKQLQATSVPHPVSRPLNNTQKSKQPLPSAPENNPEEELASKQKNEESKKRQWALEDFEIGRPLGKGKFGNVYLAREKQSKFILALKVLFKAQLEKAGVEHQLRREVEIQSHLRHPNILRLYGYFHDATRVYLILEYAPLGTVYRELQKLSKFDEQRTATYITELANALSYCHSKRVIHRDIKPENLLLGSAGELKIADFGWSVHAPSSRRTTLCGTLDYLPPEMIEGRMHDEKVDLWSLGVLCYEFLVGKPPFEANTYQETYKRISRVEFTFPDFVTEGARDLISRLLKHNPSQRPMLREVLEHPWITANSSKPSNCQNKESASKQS

INSR (human) = INSR (human) (UniProt P06213)
CAMK4 (human) = CAMK4 (human) (UniProt Q16566)
PKN2 (human) = PKN2 (human) (UniProt Q16513)
PAK2 (human) = PAK2 (human) (UniProt Q13177)
EPHA7 (human) = EPHA7 (human) (UniProt Q15375)
AKT1 (human) = AKT1 (human) (UniProt P31749)
RPS6KA6 KD1 KD2 (human) = RPS6KA6 KD1 KD2 (human) (UniProt Q9UK32)
DCLK2 (human) = DCLK2 (human) (UniProt Q8N568)
MAP3K5 (human) = MAP3K5 (human) (UniProt Q99683)
BRSK1 (human) = BRSK1 (human) (UniProt Q8TDC3)
MKNK2 (human) = MKNK2 (human) (UniProt Q9HBH9)
PDGFRA (human) = PDGFRA (human) (UniProt P16234)
WNK2 (human) = WNK2 (human) (UniProt Q9Y3S1)
SRPK2 (human) = SRPK2 (human) (UniProt P78362)
IKBKB (human) = IKBKB (human) (UniProt O14920)
Chain of IKBKB (human) (O14920 whole entry, looked up): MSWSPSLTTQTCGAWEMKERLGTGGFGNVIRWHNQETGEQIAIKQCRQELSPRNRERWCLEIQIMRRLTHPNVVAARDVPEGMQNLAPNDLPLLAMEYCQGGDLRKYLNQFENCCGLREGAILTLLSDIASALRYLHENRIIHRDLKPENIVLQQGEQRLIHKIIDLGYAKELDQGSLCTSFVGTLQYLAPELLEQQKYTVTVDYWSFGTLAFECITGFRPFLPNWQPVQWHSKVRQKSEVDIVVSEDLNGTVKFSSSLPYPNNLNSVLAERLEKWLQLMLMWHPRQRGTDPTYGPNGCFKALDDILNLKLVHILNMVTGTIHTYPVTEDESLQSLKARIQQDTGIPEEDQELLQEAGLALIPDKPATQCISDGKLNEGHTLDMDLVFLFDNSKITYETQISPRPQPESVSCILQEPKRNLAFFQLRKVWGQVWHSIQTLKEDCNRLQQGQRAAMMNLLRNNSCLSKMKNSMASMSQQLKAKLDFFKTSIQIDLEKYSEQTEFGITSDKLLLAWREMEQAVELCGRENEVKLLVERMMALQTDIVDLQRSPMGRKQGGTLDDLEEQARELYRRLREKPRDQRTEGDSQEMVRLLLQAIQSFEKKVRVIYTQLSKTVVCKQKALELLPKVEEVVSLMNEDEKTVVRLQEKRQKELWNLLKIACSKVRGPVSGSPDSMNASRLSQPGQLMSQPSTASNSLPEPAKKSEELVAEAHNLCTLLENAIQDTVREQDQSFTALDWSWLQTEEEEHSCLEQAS

PDPK1 (human) = PDPK1 (human) (UniProt O15530)
PLK2 (human) = PLK2 (human) (UniProt Q9NYY3)
Chain of PLK2 (human) (Q9NYY3 whole entry, looked up): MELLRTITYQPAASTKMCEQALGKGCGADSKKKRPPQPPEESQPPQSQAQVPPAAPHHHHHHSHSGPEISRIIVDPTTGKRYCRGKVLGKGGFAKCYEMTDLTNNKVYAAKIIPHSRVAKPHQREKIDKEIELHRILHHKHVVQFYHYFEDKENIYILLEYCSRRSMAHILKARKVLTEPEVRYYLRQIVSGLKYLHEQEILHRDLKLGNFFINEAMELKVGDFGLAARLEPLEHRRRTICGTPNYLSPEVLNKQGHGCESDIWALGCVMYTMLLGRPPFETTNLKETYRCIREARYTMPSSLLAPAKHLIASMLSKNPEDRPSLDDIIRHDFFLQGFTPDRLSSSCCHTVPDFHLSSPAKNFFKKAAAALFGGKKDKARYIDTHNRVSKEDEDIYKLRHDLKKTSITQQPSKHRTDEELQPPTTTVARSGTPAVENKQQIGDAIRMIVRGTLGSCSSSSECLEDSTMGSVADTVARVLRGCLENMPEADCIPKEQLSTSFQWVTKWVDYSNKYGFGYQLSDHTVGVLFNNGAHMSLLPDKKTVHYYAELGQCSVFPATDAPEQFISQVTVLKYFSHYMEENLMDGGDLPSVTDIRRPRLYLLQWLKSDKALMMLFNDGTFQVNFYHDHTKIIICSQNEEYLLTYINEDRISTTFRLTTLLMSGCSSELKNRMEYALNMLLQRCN

MATK (human) = MATK (human) (UniProt P42679)
CAMK2G (human) = CAMK2G (human) (UniProt Q13555)
Chain of CAMK2G (human) (Q13555 whole entry, looked up): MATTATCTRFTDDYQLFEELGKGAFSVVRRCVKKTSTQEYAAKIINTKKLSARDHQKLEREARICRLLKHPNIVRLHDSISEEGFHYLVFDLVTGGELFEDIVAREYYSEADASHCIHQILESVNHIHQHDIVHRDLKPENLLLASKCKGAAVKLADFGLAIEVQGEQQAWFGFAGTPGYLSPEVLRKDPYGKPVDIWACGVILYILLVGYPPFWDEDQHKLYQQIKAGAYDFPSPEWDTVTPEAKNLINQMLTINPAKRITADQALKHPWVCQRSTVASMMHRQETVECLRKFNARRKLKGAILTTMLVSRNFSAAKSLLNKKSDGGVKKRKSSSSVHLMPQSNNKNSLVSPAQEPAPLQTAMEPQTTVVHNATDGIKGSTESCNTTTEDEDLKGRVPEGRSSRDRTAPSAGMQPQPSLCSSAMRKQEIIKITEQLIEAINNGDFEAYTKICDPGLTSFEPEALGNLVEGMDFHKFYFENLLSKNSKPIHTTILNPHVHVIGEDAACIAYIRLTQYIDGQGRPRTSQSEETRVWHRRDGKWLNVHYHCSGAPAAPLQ

TAOK1 (human) = TAOK1 (human) (UniProt Q7L7X3)
STK39 (human) = STK39 (human) (UniProt Q9UEW8)
RPS6KA3 KD1 KD2 (human) = RPS6KA3 KD1 KD2 (human) (UniProt P51812)
ABL1 (human) = ABL1 (human) (UniProt P00519)
SIK2 (human) = SIK2 (human) (UniProt Q9H0K1)
FRK (human) = FRK (human) (UniProt P42685)
CDC42BPB (human) = CDC42BPB (human) (UniProt Q9Y5S2)

Chain of NEK9 (human) (Q8TD19 whole entry, looked up): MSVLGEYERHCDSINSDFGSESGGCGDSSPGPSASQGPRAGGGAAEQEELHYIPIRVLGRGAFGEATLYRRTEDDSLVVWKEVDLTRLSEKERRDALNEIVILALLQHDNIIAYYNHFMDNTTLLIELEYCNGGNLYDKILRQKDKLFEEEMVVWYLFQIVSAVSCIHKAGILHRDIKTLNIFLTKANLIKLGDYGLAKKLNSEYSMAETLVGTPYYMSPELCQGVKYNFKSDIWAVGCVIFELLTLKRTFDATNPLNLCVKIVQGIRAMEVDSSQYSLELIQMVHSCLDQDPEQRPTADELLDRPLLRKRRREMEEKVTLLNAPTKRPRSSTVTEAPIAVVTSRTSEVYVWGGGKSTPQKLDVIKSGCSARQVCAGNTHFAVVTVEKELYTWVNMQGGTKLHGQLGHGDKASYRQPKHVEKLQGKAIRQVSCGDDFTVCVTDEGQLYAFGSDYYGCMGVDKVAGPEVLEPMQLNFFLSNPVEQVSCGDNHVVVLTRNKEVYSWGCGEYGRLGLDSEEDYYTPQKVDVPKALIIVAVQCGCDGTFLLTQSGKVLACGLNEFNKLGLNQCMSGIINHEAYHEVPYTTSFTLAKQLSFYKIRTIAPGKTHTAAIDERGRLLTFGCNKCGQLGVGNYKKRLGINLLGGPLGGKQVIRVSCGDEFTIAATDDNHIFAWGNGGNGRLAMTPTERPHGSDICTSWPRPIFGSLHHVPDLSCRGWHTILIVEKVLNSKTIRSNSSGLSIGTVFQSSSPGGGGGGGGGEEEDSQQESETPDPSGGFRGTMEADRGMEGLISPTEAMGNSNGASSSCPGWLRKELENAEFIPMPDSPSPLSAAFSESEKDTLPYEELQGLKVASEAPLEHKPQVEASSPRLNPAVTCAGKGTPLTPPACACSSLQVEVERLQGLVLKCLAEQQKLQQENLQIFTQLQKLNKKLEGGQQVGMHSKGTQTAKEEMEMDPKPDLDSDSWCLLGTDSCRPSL

O=C(c1ccccc1)c1ccc(N2CCOCC2)cc1O was tested, and the residual activity (MAP3K10 (human)) was 100%, the residual activity (PRKD3 (human)) was 96.1% and the residual activity (ACVR1B (human)) was 104%. The residual activity (MUSK (human)) was 101%, the residual activity (NEK9 (human)) was 103% and the residual activity (MARK2 (human)) was 107%. The residual activity (MAP3K9 (human)) was 112%, the residual activity (CDK2 CCNA2 (human)) was 99.3% and the residual activity (MELK (human)) was 103%. For the same compound, the residual activity (CDK5 CDK5R1 p35 (human)) was 97%, the residual activity (PTK2 (human)) was 109% and the residual activity (CAMKK1 (human)) was 107%. For the same compound, the residual activity (PASK (human)) was 94.3%, the residual activity (PRKD1 (human)) was 102% and the residual activity (INSRR (human)) was 97.6%. For the same compound, the residual activity (AURKA (human)) was 108%, the residual activity (INSR (human)) was 92.9% and the residual activity (CAMK4 (human)) was 94.7%. For the same compound, the residual activity (PKN2 (human)) was 96.8%, the residual activity (PAK2 (human)) was 103% and the residual activity (EPHA7 (human)) was 98.4%. It also gave a residual activity (AKT1 (human)) of 102%, a residual activity (RPS6KA6 KD1 KD2 (human)) of 101% and a residual activity (DCLK2 (human)) of 103%. The residual activity (MAP3K5 (human)) was 97.8%, the residual activity (BRSK1 (human)) was 103% and the residual activity (MKNK2 (human)) was 90.6%. For the same compound, the residual activity (PDGFRA (human)) was 91.9%, the residual activity (WNK2 (human)) was 100% and the residual activity (SRPK2 (human)) was 102%. The residual activity (IKBKB (human)) was 105%, the residual activity (PDPK1 (human)) was 101% and the residual activity (PLK2 (human)) was 111%. It also gave a residual activity (MATK (human)) of 92.5%, a residual activity (CAMK2G (human)) of 94% and a residual activity (TAOK1 (human)) of 100%. The residual activity (STK39 (human)) was 94.8%, the residual activity (RPS6KA3 KD1 KD2 (human)) was 104% and the residual activity (ABL1 (human)) was 102%. It also gave a residual activity (SIK2 (human)) of 100%, a residual activity (FRK (human)) of 102% and a residual activity (CDC42BPB (human)) of 90.9%.

With COc1cccc(-c2cc(=O)c3ccccc3o2)c1N the residual activity (MAP3K10 (human)) was 90%, the residual activity (PRKD3 (human)) was 94.3% and the residual activity (ACVR1B (human)) was 92.5%. The residual activity (MUSK (human)) was 94.2%, the residual activity (NEK9 (human)) was 102% and the residual activity (MARK2 (human)) was 84.9%. It also gave a residual activity (MAP3K9 (human)) of 93.2%, a residual activity (CDK2 CCNA2 (human)) of 102% and a residual activity (MELK (human)) of 94%. It also gave a residual activity (CDK5 CDK5R1 p35 (human)) of 101%, a residual activity (PTK2 (human)) of 98.2% and a residual activity (CAMKK1 (human)) of 98.8%. It also gave a residual activity (PASK (human)) of 86.1%, a residual activity (PRKD1 (human)) of 103% and a residual activity (INSRR (human)) of 98.4%. The residual activity (AURKA (human)) was 107%, the residual activity (INSR (human)) was 106% and the residual activity (CAMK4 (human)) was 104%. For the same compound, the residual activity (PKN2 (human)) was 81%, the residual activity (PAK2 (human)) was 104% and the residual activity (EPHA7 (human)) was 98.6%. It also gave a residual activity (AKT1 (human)) of 93.8%, a residual activity (RPS6KA6 KD1 KD2 (human)) of 95.2% and a residual activity (DCLK2 (human)) of 88.3%. It also gave a residual activity (MAP3K5 (human)) of 103%, a residual activity (BRSK1 (human)) of 84.9% and a residual activity (MKNK2 (human)) of 108%. For the same compound, the residual activity (PDGFRA (human)) was 103%, the residual activity (WNK2 (human)) was 122% and the residual activity (SRPK2 (human)) was 91.7%. For the same compound, the residual activity (IKBKB (human)) was 92.5%, the residual activity (PDPK1 (human)) was 98.3% and the residual activity (PLK2 (human)) was 92.5%. For the same compound, the residual activity (MATK (human)) was 88.6%, the residual activity (CAMK2G (human)) was 96.6% and the residual activity (TAOK1 (human)) was 77.9%. For the same compound, the residual activity (STK39 (human)) was 86.8%, the residual activity (RPS6KA3 KD1 KD2 (human)) was 93.6% and the residual activity (ABL1 (human)) was 93.9%. The residual activity (SIK2 (human)) was 102%, the residual activity (FRK (human)) was 89.5% and the residual activity (CDC42BPB (human)) was 94.8%.
